Where two headings read alike, the source gives them in different places. Where a SMILES comes first, the peptide text is derived from it. Bridges are numbered along the chain shown (N, C = ends). [ ]: non-standard residue; d: D form. The star is where a group is joined. Octatrienoyl(2E,4E,6E) = C/C=C/C=C/C=C/C(=O)*; Pro(4R-Me) = C[C@H]1CN[C@H](C(=O)O)C1; dNMeL = CN[C@H](CC(C)C)C(=O)O; Hiv = CC(C)[C@H](O)C(=O)O; NMeA = CN[C@@H](C)C(=O)O
Assays:
[1] = system: P. falciparum 3D7 parasites; assay: P. falciparum growth inhibition assay, 1-cycle (72 h treatment), SYBR DNA staining (library screen at 2 μg/mL and dose-response); assay type: cell-based, Plasmodium falciparum; settings: for activity at 2 µg/mL: Plasmodium falciparum, 3D7
[2] = system: P. falciparum 3D7 parasites; assay: P. falciparum growth inhibition assay, 2-cycle (120 h treatment), delayed-death screen and dose-response; assay type: cell-based, Plasmodium falciparum; settings: for activity at 2 µg/mL: Plasmodium falciparum, 3D7
[3] = system: T. gondii RH strain (RH-Tub-eYFP) tachyzoites; assay: microbe, parasite or virus in culture; assay type: cell-based, Toxoplasma gondii; settings: 72 h; for percent parasite growth at 2 µg/mL: Toxoplasma gondii
[4] = library screen at 2 μg/mL, 72 h, % growth, replicate 1
[5] = library screen at 2 μg/mL, 72 h, % growth, replicate 2
[6] = library screen at 2 μg/mL, 120 h, % growth, replicate 1
[7] = library screen at 2 μg/mL, 120 h, % growth, replicate 2
[8] = library screen at 2 μg/mL, % growth, replicate 1
[9] = library screen at 2 μg/mL, % growth, replicate 2
[10] = P. falciparum 3D7, 72 h, library screen at 2 μg/mL, % growth, replicate 1
[11] = P. falciparum 3D7, 72 h, library screen at 2 μg/mL, % growth, replicate 2
[12] = P. falciparum 3D7, 120 h, library screen at 2 μg/mL, % growth, replicate 1
[13] = P. falciparum 3D7, 120 h, library screen at 2 μg/mL, % growth, replicate 2
[14] = T. gondii RH, library screen at 2 μg/mL, % growth, replicate 1
[15] = T. gondii RH, library screen at 2 μg/mL, % growth, replicate 2

C/C=C/C=C/C=C/C(=O)N[C@H]1CCCNC(=O)[C@H](C)N(C)C(=O)[C@H](C(C)C)N(C)C1=O [Aspochracin]
Pf_72h_%Growth_Rep1 [1, 4]: 109.60% | Pf_72h_%Growth_Rep2 [1, 5]: 89.28% | Pf_120h_%Growth_Rep1 [2, 6]: 147.75% | Pf_120h_%Growth_Rep2 [2, 7]: 101.25% | Tg_72h_%Growth_Rep1 [3, 8]: 82.68% | Tg_72h_%Growth_Rep2 [3, 9]: 94.06%

CC(=O)[C@H]1c2c(c(O)c3c(O)cccc3c2-c2c3c(c(O)c4c(O)cccc24)C(=O)C[C@](C)(O)[C@H]3C(C)=O)C(=O)C[C@]1(C)O [A 39183A]
Pf_72h_%Growth_Rep1 [1, 4]: 2.40% | Pf_72h_%Growth_Rep2 [1, 5]: 2.28% | Pf_120h_%Growth_Rep1 [2, 6]: 5.28% | Pf_120h_%Growth_Rep2 [2, 7]: -2.60% | Tg_72h_%Growth_Rep1 [3, 8]: 90.59% | Tg_72h_%Growth_Rep2 [3, 9]: 100.22%

Cc1cc(O)c(C=O)c2c1C(=O)Oc1c(COC(=O)/C=C/C(=O)O)c(O)c(C(=O)O)c(C)c1O2 [Fumarprotocetraric acid]
activity at 2 µg/mL ([1]; library screen at 2 μg/mL, 72 h, % growth, replicate 1, read-out: Pf_72h_%Growth_Rep1): 84.6% | activity at 2 µg/mL ([1]; library screen at 2 μg/mL, 72 h, % growth, replicate 2, read-out: Pf_72h_%Growth_Rep2): 90.2% | activity at 2 µg/mL ([2]; library screen at 2 μg/mL, 120 h, % growth, replicate 1, read-out: Pf_120h_%Growth_Rep1): 102% | activity at 2 µg/mL ([2]; library screen at 2 μg/mL, 120 h, % growth, replicate 2, read-out: Pf_120h_%Growth_Rep2): 100% | percent parasite growth at 2 µg/mL ([3]; library screen at 2 μg/mL, % growth, replicate 1, read-out: Tg_72h_%Growth_Rep1): 126% | percent parasite growth at 2 µg/mL ([3]; library screen at 2 μg/mL, % growth, replicate 2, read-out: Tg_72h_%Growth_Rep2): 103%

CC(C)C[C@@H]1NC(=O)[C@H](C(C)C)NC(=O)[C@H](C(C)C)OC(=O)[C@@H](CC(C)C)N(C)C(=O)[C@@H](C(C)C)NC(=O)[C@H](C(C)C)OC1=O [Sporidesmolide I] (cyclo([Hiv]VL[Hiv][dV][dNMeL]))
Pf_72h_%Growth_Rep1 ([1]; P. falciparum, 72 h, parasite screen 2 μg/mL, % growth, replicate 1): 86.99% | Pf_72h_%Growth_Rep2 ([1]; P. falciparum, 72 h, parasite screen 2 μg/mL, % growth, replicate 2): 89.18% | Pf_120h_%Growth_Rep1 ([2]; P. falciparum, 120 h, parasite screen 2 μg/mL, % growth, replicate 1): 103.89% | Pf_120h_%Growth_Rep2 ([2]; P. falciparum, 120 h, parasite screen 2 μg/mL, % growth, replicate 2): 100.78% | Tg_72h_%Growth_Rep1 ([3]; T. gondii, parasite screen 2 μg/mL, % growth, replicate 1): 147.37% | Tg_72h_%Growth_Rep2 ([3]; T. gondii, parasite screen 2 μg/mL, % growth, replicate 2): 92.68%

COC1C=CC=C(C)C(=O)NC2=CC(=O)C=C(C2=O)C(OC)C(C)CC(OC)C(OC)C(C)C=C(C)C1OC(N)=O (stereo not shown) [BIA-H1036]
Pf_72h_%Growth_Rep1 [1, 10]: 51.92% | Pf_72h_%Growth_Rep2 [1, 11]: 44.34% | Pf_120h_%Growth_Rep1 [2, 12]: 68.16% | Pf_120h_%Growth_Rep2 [2, 13]: 41.77% | Tg_72h_%Growth_Rep1 [3, 14]: 133.21% | Tg_72h_%Growth_Rep2 [3, 15]: 80.30%

O=c1cc2ccocc-2o1 [BIA-K1792]
Pf_72h_%Growth_Rep1 [1, 10]: 80.31% | Pf_72h_%Growth_Rep2 [1, 11]: 115.37% | Pf_120h_%Growth_Rep1 [2, 12]: 89.46% | Pf_120h_%Growth_Rep2 [2, 13]: 104.67% | Tg_72h_%Growth_Rep1 [3, 14]: 114.69% | Tg_72h_%Growth_Rep2 [3, 15]: 93.25%

CC[C@H]1OC(=O)C[C@@H](O)[C@H](C)[C@@H](O[C@@H]2O[C@H](C)[C@@H](O)[C@H](N(C)C)[C@H]2O)[C@@H](CCN2C[C@H](C)C[C@H](C)C2)C[C@@H](C)C(=O)/C=C/C(C)=C/[C@@H]1CO[C@@H]1O[C@H](C)[C@@H](O)[C@@H](OC)[C@H]1OC.O=P(O)(O)O [Tilmicosin phosphate, reference compound]
1) Growth (%) at 72 h ([1]; P. falciparum, 2 μg/mL, 72 h): 22.07% | Mean ([1]; P. falciparum, 72 h, 2 μg/mL, mean of both replicates, growth (% of control)): 22.07 | Pf_72h_%Growth_Rep1 ([1]; P. falciparum, 72 h, screen at 2 μg/mL, replicate 1): 4.49% | Pf_72h_%Growth_Rep2 ([1]; P. falciparum, 72 h, screen at 2 μg/mL, replicate 2): 39.64% | 2) Growth (%) at 120 h ([2]; P. falciparum, 2 μg/mL, 120 h): 7.83% | Pf_120h_%Growth_Rep1 ([2]; P. falciparum, 120 h, screen at 2 μg/mL, replicate 1): 10.28% | Pf_120h_%Growth_Rep2 ([2]; P. falciparum, 120 h, screen at 2 μg/mL, replicate 2): 5.38% | 3) Fold change (72 h/120 h) ([2]; P. falciparum, growth at 72 h / growth at 120 h, 2 μg/mL): 2.8 | Tg_72h_%Growth_Rep1 ([3]; T. gondii, screen at 2 μg/mL, replicate 1): 41.21% | Tg_72h_%Growth_Rep2 ([3]; T. gondii, screen at 2 μg/mL, replicate 2): 38.33%

CC[C@H]1OC(=O)[C@H](C)[C@@H](O[C@H]2C[C@@](C)(OC)[C@@H](O)[C@H](C)O2)[C@H](C)[C@@H](O[C@@H]2O[C@H](C)C[C@H](N(C)C)[C@H]2O)[C@](C)(OC)C[C@@H](C)C(=O)[C@H](C)[C@@H](O)[C@]1(C)O [Clarithromycin]
activity at 2 µg/mL ([1]; P. falciparum, 72 h, screen at 2 μg/mL, replicate 1, read-out: Pf_72h_%Growth_Rep1): 74.8% | activity at 2 µg/mL ([1]; P. falciparum, 72 h, screen at 2 μg/mL, replicate 2, read-out: Pf_72h_%Growth_Rep2): 62.6% | activity at 2 µg/mL ([2]; P. falciparum, 120 h, screen at 2 μg/mL, replicate 1, read-out: Pf_120h_%Growth_Rep1): 31.2% | activity at 2 µg/mL ([2]; P. falciparum, 120 h, screen at 2 μg/mL, replicate 2, read-out: Pf_120h_%Growth_Rep2): 16.9% | percent parasite growth at 2 µg/mL ([3]; T. gondii, screen at 2 μg/mL, replicate 1, read-out: Tg_72h_%Growth_Rep1): 40.9% | percent parasite growth at 2 µg/mL ([3]; T. gondii, screen at 2 μg/mL, replicate 2, read-out: Tg_72h_%Growth_Rep2): 40.8%

C/C=C/C=C/C=C/C(=O)N[C@@H](Cc1ccccc1)C(=O)N[C@H]1COC(=O)[C@@H]2C[C@@H](C)CN2C(=O)[C@H](C)NC(=O)[C@H](C)N(C)C(=O)[C@@H]2CCCN2C1=O [A 54556A] ({Octatrienoyl(2E,4E,6E)}-FSP[NMeA]A[Pro(4R-Me)]; ester 2-C)
Pf_72h_%Growth_Rep1 [1, 4]: 73.00% | Pf_72h_%Growth_Rep2 [1, 5]: 56.16% | Pf_120h_%Growth_Rep1 [2, 6]: 58.56% | Pf_120h_%Growth_Rep2 [2, 7]: 46.42% | Tg_72h_%Growth_Rep1 [3, 8]: 149.51% | Tg_72h_%Growth_Rep2 [3, 9]: 92.23%

Source: paper PMC12396409, “Screening and hit evaluation of a microbial metabolite library against the pathogenic Plasmodium falciparum and Toxoplasma gondii parasites” (International Journal for Parasitology: Drugs and Drug …, 2025)
